Assays:
[1] = test system: Japanese patients with newly diagnosed ovarian cancer; assay: Phase 1 safety/tolerability: treatment-emergent adverse events, DLT, MTD, RP2D
Method: This was a phase 1, open‐label, multicenter, dose‐escalation study to evaluate the tolerability, safety, PK and preliminary efficacy of oral veliparib in combination with carboplatin and weekly paclitaxel in Japanese patients with ovarian cancer. Patients were assigned to treatment with veliparib at either 100 mg (dose level 1 [DL1]) or 150 mg (DL2) b.i.d. on days 1–21 of a 21‐day cycle. […] After completion of cycle 1, subsequent cycles were not begun until the patient's ANC was ≥1500/mm^3 and the platelet count ≥100 000/mm^3. Patients with ANC 1000–1499/mm^3 or platelet count 75 000–99 000/mm^3 (or both) could proceed to the next cycle of therapy with a predefined dose modification (Table S1). On day 8 or 15 of each cycle, another dose modification guideline was applied (Table S2). The patient's participation in the study was discontinued upon the third occurrence of hematologic toxicity that required dose modification per protocol. Treatment could be postponed for up to 21 days because of toxicity; longer toxicity‐related delay led to study discontinuation. Reduction of carboplatin and paclitaxel doses was permitted based on the toxicity observed (Table S3), which could necessitate discontinuation of either agent. At the investigator's discretion, patients who discontinued veliparib were […] to discontinue the study but could continue to receive carboplatin and paclitaxel as standard of care. The trial was conducted in accordance with good clinical practice, the International Conference on Harmonization guidelines, and the 1964 Declaration of Helsinki and its later amendments; written informed consent was obtained from all patients before study enrollment.
Dose escalation proceeded according to a 3 + 3 design to determine dose‐limiting toxicities (DLT), the maximum tolerated dose (MTD) and the RP2D. A minimum of 3 patients were enrolled at DL1. If none of these patients experienced a DLT, 3 more patients would be enrolled at DL2. If 1 or 2 patients experienced a DLT at DL1, 3 more patients would be enrolled at the same dose level. If ≤2 of 6 patients experienced a DLT, dose escalation would proceed to DL2. If ≥3 patients experienced a DLT, dose escalation would be stopped, with the following exceptions: (i) if 3 of 6 patients at DL1 experienced DLT, 3 more patients would enter the DL and the cohort be expanded to 9 patients, depending on a review of the specific DLT observed and discussion with the investigators; and (ii) if 3 of 9 patients at DL1 experienced DLT, escalation to DL2 would proceed, but if >3 of 9 patients experienced DLT, then dose escalation would stop.
Dose‐limiting toxicities were determined based on events that occurred during the DLT evaluation period from day 1 of cycle 1 through pre‐dosing on day 1 of cycle 2. A patient was considered to be evaluable for DLT assessment if they had completed cycle 1 with the assigned regimen or had prematurely discontinued cycle 1 or experienced an adverse event (AE) related to veliparib. AE that occurred after the DLT evaluation period were considered in dose‐escalation decisions and tolerability assessment. The MTD was defined as the highest dose level at which ≤2 of 6 or ≤3 of 9 patients experienced a DLT. The RP2D was determined on the basis of assessment of the observed toxicities, the MTD, the overall safety profile of the regimen, and the PK of veliparib. In the event that the MTD was not reached, the RP2D was to be defined on the basis of safety and PK data and would not be higher than the maximum administered dose. Any of the following events that were considered to have a reasonable possibility of being related to the administration of veliparib were defined as DLT: grade 4 neutropenia lasting more than 7 days; grade 4 thrombocytopenia; febrile neutropenia; any grade ≥3 nonhematologic toxicities except nausea, vomiting and diarrhea; and transient metabolic toxicities such as glucose changes, hypokalemia or hypophosphatemia.

[2] = Plasma pharmacokinetics on day 1 of cycle 1 (noncompartmental); set-up: AUC(0-inf): dose or concentration left out as unconfirmed
Method: (§1) During the screening visit, a complete medical history (including a detailed oncology history) was collected. Study visits occurred on days 1, 8 and 15 of cycle 1 and each subsequent cycle; patients also attended for a final visit and a 30‐day follow‐up visit. AE monitoring was performed at each visit; most visits also included a physical examination and ECOG performance status evaluation. Toxicities were graded according to the NCI Common Terminology Criteria for Adverse Events version 4.03. For the determination of veliparib, carboplatin and paclitaxel PK, plasma samples were collected at multiple time points within 24 h of the first morning dose of veliparib on day 1 of cycle 1. The PK of carboplatin and paclitaxel were evaluated only with veliparib co‐administration. Values of the PK parameters of veliparib, carboplatin and paclitaxel, including the maximum observed plasma concentration (C max), time to C max (T max) and AUC, were determined by using noncompartmental methods. In addition to tumor assessment at baseline, tumor response was assessed by using the Response Evaluation Criteria In Solid Tumors (RECIST) version 1.113 every 9 weeks from day 1 of cycle 1 and at the final visit. The tumor marker cancer antigen 125 (CA‐125) was evaluated on day 1 of each cycle and at the final visit.

[3] = test system: target lesions, ovarian cancer; assay: Tumor response by RECIST version 1.1; assay type: in vivo, Japanese patients
Method: as §1

CA‐125 = assay: Tumor marker CA-125 response (Gynecologic Cancer InterGroup definition); assay type: in vivo, Japanese patients
Method: as §1

[4] = test system: non‐small cell lung cancer; set-up: method as in PMID 26433581; conditions: veliparib with carboplatin/paclitaxel, Japanese NSCLC patients, no more than 1 prior line of treatment; cited from earlier work
[5] = Total (both veliparib doses) + carboplatin/paclitaxel, N = 9, All grades
[6] = Total (both veliparib doses) + carboplatin/paclitaxel, N = 9, Grade 3 or 4
[7] = all 9 patients, regardless of relation to veliparib
[8] = veliparib 100 mg BID + carboplatin/paclitaxel, n = 3, All grades
[9] = veliparib 150 mg BID + carboplatin/paclitaxel, n = 6, All grades
[10] = veliparib dose 100 mg, day 1 of cycle 1, N 3, mean ± SD
[11] = veliparib dose 150 mg, day 1 of cycle 1, N 6, mean ± SD

Compound: C[C@]1(c2nc3c(C(N)=O)cccc3[nH]2)CCCN1 [Veliparib]
- Nail disorder, TEAE [1, 5]: 2 (22) n (%)
- Nausea, TEAE [1, 5]: 6 (67) n (%)
- Neutropenia (including neutrophil count decreased), TEAE [1, 5]: 9 (100) n (%)
- Peripheral sensory neuropathy (including neuropathy peripheral), TEAE [1, 5]: 7 (78) n (%)
- Rash, TEAE [1, 5]: 2 (22) n (%)
- Stomatitis, TEAE [1, 5]: 2 (22) n (%)
- Thrombocytopenia (including platelet count decreased), TEAE [1, 5]: 5 (56) n (%)
- Vomiting, TEAE [1, 5]: 4 (44) n (%)
- Alopecia, TEAE [1, 6]: 0 n (%)
- Anemia, TEAE [1, 6]: 5 (56) n (%)
- Any AE, TEAE [1, 6]: 7 (78) n (%)
- Arthralgia, TEAE [1, 6]: 0 n (%)
- Constipation, TEAE [1, 6]: 0 n (%)
- Decreased appetite, TEAE [1, 6]: 0 n (%)
- Dry skin, TEAE [1, 6]: 0 n (%)
- Dysgeusia, TEAE [1, 6]: 0 n (%)
- Leukopenia (including white blood cell count decreased), TEAE [1, 6]: 4 (44) n (%)
- Malaise, TEAE [1, 6]: 0 n (%)
- Nail disorder, TEAE [1, 6]: 0 n (%)
- Nasopharyngitis, TEAE [1, 6]: 0 n (%)
- Nausea, TEAE [1, 6]: 0 n (%)
- Neutropenia (including neutrophil count decreased), TEAE [1, 6]: 7 (78) n (%)
- Peripheral sensory neuropathy (including neuropathy peripheral), TEAE [1, 6]: 0 n (%)
- Rash, TEAE [1, 6]: 0 n (%)
- Stomatitis, TEAE [1, 6]: 0 n (%)
- Vomiting, TEAE [1, 6]: 0 n (%)
- AE that led to death ([1]; all 9 patients): no AE that led to death
- alopecia, TEAE of any grade [1, 7]: 89%
- anemia, TEAE of any grade [1, 7]: 67%
- anemia, grade 3 or 4 TEAE [1, 7]: 56%
- malaise, TEAE of any grade [1, 7]: 67%
- nausea, TEAE of any grade [1, 7]: 67%
- neutropenia, TEAE of any grade [1, 7]: 100%
- neutropenia, grade 3 or 4 TEAE ([1]; female, human, in vivo): 78%
- peripheral sensory neuropathy, TEAE of any grade ([1]; female, human, in vivo): 78%
- recommended phase 2 dose (RP2D) ([1]; in combination with carboplatin and weekly paclitaxel, determined on safety and PK data): 150 mg b.i.d.
- dose‐limiting toxicities (DLT) ([1]; in vivo): No DLT were observed at any dose level
- veliparib dose reduction ([1]; in vivo): No patient needed a veliparib dose reduction
- veliparib discontinued because of a TEAE ([1]; overall, 6 of 9 patients): 67%
- Alopecia, TEAE [1, 8]: 3 (100) n (%)
- Anemia, TEAE [1, 8]: 2 (67) n (%)
- Alopecia, TEAE [1, 9]: 5 (83) n (%)
- Anemia, TEAE [1, 9]: 4 (67) n (%)
- maximum tolerated dose (MTD) of the regimen ([1]; veliparib up to 150 mg b.i.d. with carboplatin and weekly paclitaxel): not reached
- PK interaction between veliparib and carboplatin or paclitaxel ([2]; cross‐study comparison): no PK interaction
- AUC0–8/dose [2, 10]: 37.2 ± 4.37 ng·h/mL/mg
- C max/dose [2, 10]: 9.73 ± 1.63 ng/mL/mg
- AUC0–8/dose [2, 11]: 36.7 ± 8.10 ng·h/mL/mg
- C max/dose [2, 11]: 7.19 ± 1.16 ng/mL/mg
- objective response rate ([3]; 5 assessed patients, veliparib plus carboplatin and paclitaxel): 100%
- partial response ([3]; both cohorts, of 5 assessed patients): 4 patients
- median best percentage change from baseline in the sum of target lesions ([3]; overall, range −100.00% to −50.00%): −53.51%
- partial response ([3]; veliparib 100 mg b.i.d.): 1 patients
- complete response ([3]; veliparib 100 mg b.i.d. cohort, of 5 assessed patients): One patient had a complete response
- median best percentage change from baseline in the sum of target lesions ([3]; veliparib 100 mg b.i.d. cohort, range −100.00% to −53.51%): −76.75%
- partial response ([3]; veliparib 150 mg b.i.d.): 3 patients
- median best percentage change from baseline in the sum of target lesions ([3]; veliparib 150 mg b.i.d. cohort, range −90.29% to −50.00%): −51.57%
- CA‐125 response (Gynecologic Cancer InterGroup definition) (CA‐125; 8 of 9 patients): 89%
- median best percentage change from baseline in CA‐125 (CA‐125; overall, range −99.79% to −34.96%): −89.33%
- median best percentage change from baseline in CA‐125 (CA‐125; veliparib 100 mg b.i.d. cohort, range −97.31% to −65.25%): −94.24%
- median best percentage change from baseline in CA‐125 (CA‐125; veliparib 150 mg b.i.d. cohort, range −99.79% to −34.96%): −84.87%
- objective response rate [4]: 55%

Compound: N.N.O=C([O-])C1(C(=O)[O-])CCC1.[Pt+2] [carboplatin]
- patients needing ≥1 carboplatin dose reduction ([1]; 7 of 9, beginning at cycle 2, due to hematologic toxicities): 78%
- C max ([2]; carboplatin measured as total platinum, AUC 6 mg/mL•min i.v. day 1 with veliparib, mean (SD)): 23.3 (4.28) μg/mL
- AUC from time zero to infinity (AUC∞) ([2]; carboplatin measured as total platinum, i.v. day 1 with veliparib, mean (SD)): 5.30 (0.491) mg•min/mL

Compound: CC(=O)O[C@H]1C(=O)[C@@]2(C)[C@H]([C@H](OC(=O)c3ccccc3)[C@]3(O)C[C@H](OC(=O)[C@H](O)[C@@H](NC(=O)c4ccccc4)c4ccccc4)C(C)=C1C3(C)C)[C@]1(OC(C)=O)CO[C@@H]1C[C@@H]2O [paclitaxel]
- AUC(0-inf) ([2]; female, human, in vivo): 5320 ng·h/mL
- Cmax ([2]; female, human, in vivo): 3300 ng/mL
